In PMC8762706, “Design of Coibamide A Mimetics with Improved Cellular Bioactivity” (ACS Medicinal Chemistry Letters, 2021):
Where a SMILES comes first, the peptide text is derived from it. Bridges are numbered along the chain shown (N, C = ends). [ ]: non-standard residue; d: D form. The star is where a group is joined. Phe(4-NO2) = N[C@@H](Cc1ccc([N+](=O)[O-])cc1)C(=O)O; Phe(4-CF3) = N[C@@H](Cc1ccc(C(F)(F)F)cc1)C(=O)O; dNMeaIle = CC[C@H](C)[C@@H](NC)C(=O)O; NMe2Val = CC(C)[C@@H](C(=O)*)N(C)C; NMeLys(Me) = CNCCCC[C@H](NC)C(=O)O; NMeI = CC[C@H](C)[C@H](NC)C(=O)O; Lys(Me) = CNCCCC[C@H](N)C(=O)O; NMeL = CN[C@@H](CC(C)C)C(=O)O; NMeOrn = CN[C@@H](CCCN)C(=O)O; dNMeOrn = CN[C@H](CCCN)C(=O)O; NMeK = CN[C@@H](CCCCN)C(=O)O; dNMeK = CN[C@H](CCCCN)C(=O)O; dHiv = CC(C)[C@@H](O)C(=O)O; NMeA = CN[C@@H](C)C(=O)O; dNMeA = CN[C@H](C)C(=O)O

What follows are compounds tested on A549 cells (assay: Growth inhibition assay (MTS) in A549 cells). Details: ratio of IC50 values to 1.
Type: cell-based
Protocol: Growth Inhibition AssayS3
A549 cells were cultured in Dulbecco’s modified Eagle’s medium (DMEM; Sigma) supplemented with 10% (v/v) fetal bovine serum at 37 °C in a 5% CO2-incubator. Growth inhibition assays using A549 cells were performed in 96-well plates (BD Falcon). A549 cells were seeded at 1000 cells/well in 90 μL of culture media, respectively, and were cultured for 24 h. Chemical compounds in DMSO were diluted 50-fold with the culture medium in advance. 30 μL of the chemical diluents were added.
The final volume of DMSO in the medium was equal to 0.5% (v/v). The cells under chemical treatment were incubated for a further 72 h. The wells in the plates were washed twice with the cultured medium without phenol-red. After 1-hour incubation with 100 μL of the medium, the cell culture in each well was supplemented with 20 μL of the MTS reagent (Promega), followed by incubation for additional 40 min. Absorbance at 490 nm of each well was measured using a Wallac 1420 ARVO SX multilabel counter (Perkin Elmer). Three experiments were performed per condition and the averages of inhibition rates in each condition were evaluated to determine IC50 values using the GraphPad Prism software.

| Structure (SMILES) | times less active than the natural product 1 |
| --- | --- |
| CC[C@H](C)[C@H]1C(=O)N[C@@H](C)C(=O)N(C)[C@@H](CC(C)C)C(=O)N[C@@H](Cc2ccc(OC)cc2)C(=O)N(C)CCCC[C@H](N(C)C(=O)[C@H](CC(C)C)N(C)C(=O)[C@H](C)N(C)C(=O)[C@H](OC(=O)[C@H](C(C)C)N(C)C)C(C)C)C(=O)N(C)[C@@H](C)C(=O)N1C [2a, [MeAla^3, MeLys(Me)^5, MeAla^6]-CbA] (NMe2Val-[dHiv][NMeA][NMeL][NMeLys(Me)][NMeA][NMeI]A[NMeL]Y(Me); lactam 4-C) | approximately 300 times |

Same assay, conditions: ratio of IC50 values to 2a

| Structure (SMILES) | fold decrease in cytotoxicity compared with peptide 2a |
| --- | --- |
| CC[C@H](C)[C@@H]1NC(=O)[C@H](C)N(C)C(=O)[C@@H](N(C)C(=O)[C@H](CC(C)C)N(C)C(=O)[C@H](C)N(C)C(=O)[C@H](OC(=O)[C@H](C(C)C)N(C)C)C(C)C)CCCCN(C)C(=O)[C@H](Cc2ccc(OC)cc2)NC(=O)[C@H](CC(C)C)N(C)C(=O)[C@H](C)NC1=O [8e] (NMe2Val-[dHiv][NMeA][NMeL][NMeLys(Me)][NMeA]IA[NMeL]Y(Me); lactam 4-C) | nine-fold or more lower |

Same assay, conditions: read-out: IC50 (concentration for 50% growth inhibition of A549 cells), MTS assay, 72 h treatment, 0.5% DMSO, absorbance 490 nm, n = 3

| Structure (SMILES) | IC50 |
| --- | --- |
| CC[C@H](C)[C@H]1C(=O)N[C@@H](C)C(=O)N(C)[C@@H](CC(C)C)C(=O)N[C@@H](Cc2ccc(OC)cc2)C(=O)N(C)CCC[C@H](N(C)C(=O)[C@H](CC(C)C)N(C)C(=O)[C@H](C)N(C)C(=O)[C@H](OC(=O)[C@H](C(C)C)N(C)C)C(C)C)C(=O)N(C)[C@@H](C)C(=O)N1C [2c] | 9.6 ± 3.2 µM |
| CC[C@H](C)[C@H]1C(=O)N[C@@H](C)C(=O)N(C)[C@@H](CC(C)C)C(=O)N[C@@H](Cc2ccc(OC)cc2)C(=O)N(C)CCC[C@@H](N(C)C(=O)[C@H](CC(C)C)N(C)C(=O)[C@H](C)N(C)C(=O)[C@H](OC(=O)[C@H](C(C)C)N(C)C)C(C)C)C(=O)N(C)[C@@H](C)C(=O)N1C [2d] | > 10 µM |
| CC[C@H](C)[C@H]1C(=O)N[C@@H](C)C(=O)N(C)[C@@H](CC(C)C)C(=O)N[C@@H](Cc2ccc(OC)cc2)C(=O)NCCCC[C@H](N(C)C(=O)[C@H](CC(C)C)N(C)C(=O)[C@H](C)N(C)C(=O)[C@H](OC(=O)[C@H](C(C)C)N(C)C)C(C)C)C(=O)N(C)[C@@H](C)C(=O)N1C [2e] (NMe2Val-[dHiv][NMeA][NMeL][NMeK][NMeA][NMeI]A[NMeL]Y(Me); lactam 4-C) | 0.85 ± 0.02 µM |
| CC[C@H](C)[C@H]1C(=O)N[C@@H](C)C(=O)N(C)[C@@H](CC(C)C)C(=O)N[C@@H](Cc2ccc(OC)cc2)C(=O)NCCCC[C@@H](N(C)C(=O)[C@H](CC(C)C)N(C)C(=O)[C@H](C)N(C)C(=O)[C@H](OC(=O)[C@H](C(C)C)N(C)C)C(C)C)C(=O)N(C)[C@@H](C)C(=O)N1C [2f] (NMe2Val-[dHiv][NMeA][NMeL][dNMeK][NMeA][NMeI]A[NMeL]Y(Me); lactam 4-C) | > 10 µM |
| CC[C@H](C)[C@H]1C(=O)N[C@@H](C)C(=O)N(C)[C@@H](CC(C)C)C(=O)N[C@@H](Cc2ccc(OC)cc2)C(=O)NCCC[C@H](N(C)C(=O)[C@H](CC(C)C)N(C)C(=O)[C@H](C)N(C)C(=O)[C@H](OC(=O)[C@H](C(C)C)N(C)C)C(C)C)C(=O)N(C)[C@@H](C)C(=O)N1C [2g] (NMe2Val-[dHiv][NMeA][NMeL][NMeOrn][NMeA][NMeI]A[NMeL]Y(Me); lactam 4-C) | > 10 µM |
| CC[C@H](C)[C@H]1C(=O)N[C@@H](C)C(=O)N(C)[C@@H](CC(C)C)C(=O)N[C@@H](Cc2ccc(OC)cc2)C(=O)NCCC[C@@H](N(C)C(=O)[C@H](CC(C)C)N(C)C(=O)[C@H](C)N(C)C(=O)[C@H](OC(=O)[C@H](C(C)C)N(C)C)C(C)C)C(=O)N(C)[C@@H](C)C(=O)N1C [2h] (NMe2Val-[dHiv][NMeA][NMeL][dNMeOrn][NMeA][NMeI]A[NMeL]Y(Me); lactam 4-C) | > 10 µM |
| CC[C@H](C)[C@H]1C(=O)N[C@@H](C)C(=O)N(C)[C@@H](CC(C)C)C(=O)N[C@@H](Cc2ccc(OC)cc2)C(=O)N(C)CCCC[C@H](N(C)C(=O)[C@H](CC(C)C)N(C)C(=O)[C@H](C)NC(=O)[C@H](OC(=O)[C@H](C(C)C)N(C)C)C(C)C)C(=O)N(C)[C@@H](C)C(=O)N1C [8a] (NMe2Val-[dHiv]A[NMeL][NMeLys(Me)][NMeA][NMeI]A[NMeL]Y(Me); lactam 4-C) | 2.2 ± 0.6 µM |
| CC[C@H](C)[C@H]1C(=O)N[C@@H](C)C(=O)N(C)[C@@H](CC(C)C)C(=O)N[C@@H](Cc2ccc(OC)cc2)C(=O)N(C)CCCC[C@H](NC(=O)[C@H](CC(C)C)N(C)C(=O)[C@H](C)N(C)C(=O)[C@H](OC(=O)[C@H](C(C)C)N(C)C)C(C)C)C(=O)N(C)[C@@H](C)C(=O)N1C [8c] (NMe2Val-[dHiv][NMeA][NMeL][Lys(Me)][NMeA][NMeI]A[NMeL]Y(Me); lactam 4-C) | 6.4 ± 1.7 µM |
| CC[C@H](C)[C@H]1C(=O)N[C@@H](C)C(=O)N(C)[C@@H](CC(C)C)C(=O)N[C@@H](Cc2ccc(OC)cc2)C(=O)N(C)CCCC[C@H](N(C)C(=O)[C@H](CC(C)C)N(C)C(=O)[C@H](C)N(C)C(=O)[C@H](OC(=O)[C@H](C(C)C)N(C)C)C(C)C)C(=O)N(C)[C@H](C)C(=O)N1C [9a] (NMe2Val-[dHiv][NMeA][NMeL][NMeLys(Me)][dNMeA][NMeI]A[NMeL]Y(Me); lactam 4-C) | > 10 µM |
| CC[C@H](C)[C@@H]1C(=O)N[C@@H](C)C(=O)N(C)[C@@H](CC(C)C)C(=O)N[C@@H](Cc2ccc(OC)cc2)C(=O)N(C)CCCC[C@H](N(C)C(=O)[C@H](CC(C)C)N(C)C(=O)[C@H](C)N(C)C(=O)[C@H](OC(=O)[C@H](C(C)C)N(C)C)C(C)C)C(=O)N(C)[C@@H](C)C(=O)N1C [9b] (NMe2Val-[dHiv][NMeA][NMeL][NMeLys(Me)][NMeA][dNMeaIle]A[NMeL]Y(Me); lactam 4-C) | > 10 µM |
| CC[C@H](C)[C@H]1C(=O)N[C@H](C)C(=O)N(C)[C@@H](CC(C)C)C(=O)N[C@@H](Cc2ccc(OC)cc2)C(=O)N(C)CCCC[C@H](N(C)C(=O)[C@H](CC(C)C)N(C)C(=O)[C@H](C)N(C)C(=O)[C@H](OC(=O)[C@H](C(C)C)N(C)C)C(C)C)C(=O)N(C)[C@@H](C)C(=O)N1C [9c] (NMe2Val-[dHiv][NMeA][NMeL][NMeLys(Me)][NMeA][NMeI][dA][NMeL]Y(Me); lactam 4-C) | > 10 µM |
| CC[C@H](C)[C@H]1C(=O)N[C@@H](C)C(=O)N(C)[C@@H](CC(C)C)C(=O)N[C@H](Cc2ccc(OC)cc2)C(=O)N(C)CCCC[C@H](N(C)C(=O)[C@H](CC(C)C)N(C)C(=O)[C@H](C)N(C)C(=O)[C@H](OC(=O)[C@H](C(C)C)N(C)C)C(C)C)C(=O)N(C)[C@@H](C)C(=O)N1C [9e] (NMe2Val-[dHiv][NMeA][NMeL][NMeLys(Me)][NMeA][NMeI]A[NMeL][dY](Me); lactam 4-C) | > 10 µM |
| CC[C@H](C)[C@H]1C(=O)N[C@@H](C)C(=O)N(C)[C@@H](CC(C)C)C(=O)N[C@@H](Cc2ccc([N+](=O)[O-])cc2)C(=O)N(C)CCCC[C@H](N(C)C(=O)[C@H](CC(C)C)N(C)C(=O)[C@H](C)N(C)C(=O)[C@H](OC(=O)[C@H](C(C)C)N(C)C)C(C)C)C(=O)N(C)[C@@H](C)C(=O)N1C [10b] (NMe2Val-[dHiv][NMeA][NMeL][NMeLys(Me)][NMeA][NMeI]A[NMeL][Phe(4-NO2)]; lactam 4-C) | 1.1 ± 0.2 µM |
| CC[C@H](C)[C@H]1C(=O)N[C@@H](C)C(=O)N(C)[C@@H](CC(C)C)C(=O)N[C@@H](Cc2ccc(C(F)(F)F)cc2)C(=O)N(C)CCCC[C@H](N(C)C(=O)[C@H](CC(C)C)N(C)C(=O)[C@H](C)N(C)C(=O)[C@H](OC(=O)[C@H](C(C)C)N(C)C)C(C)C)C(=O)N(C)[C@@H](C)C(=O)N1C [10c] (NMe2Val-[dHiv][NMeA][NMeL][NMeLys(Me)][NMeA][NMeI]A[NMeL][Phe(4-CF3)]; lactam 4-C) | 0.37 ± 0.07 µM |
